Measurements as given in patent publication US20170356126A1, “LIQUID FILM CLEAVAGE AGENT” (Kao Corporation, priority 2014, published 2017).

Protocol: Further, the water solubility is considered to be applied also to menstrual blood, urine or the like which contains water as a main component.
Specifically, the agent is added for every 0.0001 g, and the measurement is performed.
These numerical values were measured by the above-mentioned measuring method. […] Moreover, the water solubility was measured by adding the agent for every 0.0001 g.

- Water solubility of the above agent: 0.0001 g
Substance: dimethyl silicone oil [Comparative Example 2, reference compound]
